PubChem BioAssay (NCI)
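Grown in 96-well plates, cells were treated for 48 hours with each compound at five concentrations. Insufficient inhibition: endpoint recorded as highest concentration tested. GI50 = concentration required for 50% inhibition of growth. TGI is the concentration that stops growth completely.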

Assays:
Experiment in all cases: inhibition of tumour cell growth, NCI panel, 48 h
NCI/ADR-RES ovarian = system: NCI/ADR-RES ovarian
HT29 colon = system: HT29 colon
OVCAR-4 ovarian = system: OVCAR-4 ovarian
CAKI-1 renal = system: CAKI-1 renal
LOX IMVI melanoma = system: LOX IMVI melanoma
OVCAR-5 ovarian = system: OVCAR-5 ovarian
HCT-15 colon = system: HCT-15 colon
MALME-3M melanoma = system: MALME-3M melanoma
SF-295 CNS = system: SF-295 CNS
RPMI-8226 leukemia = system: RPMI-8226 leukemia

COc1ccc(C(=O)c2cc3c(N)c(C(=O)Nc4ccc(C)cc4)sc3nc2C)cc1
GI50 (NCI/ADR-RES ovarian): 2.55 µM | TGI (NCI/ADR-RES ovarian): 15.4 µM | GI50 (HT29 colon): 2.74 µM | TGI (HT29 colon): 15.2 µM | GI50 (OVCAR-4 ovarian): 5.55 µM | TGI (OVCAR-4 ovarian): > 100 µM | GI50 (CAKI-1 renal): 2.35 µM | TGI (CAKI-1 renal): 20.4 µM | GI50 (LOX IMVI melanoma): 4.94 µM | TGI (LOX IMVI melanoma): > 100 µM | GI50 (OVCAR-5 ovarian): 7.13 µM | TGI (OVCAR-5 ovarian): > 100 µM | GI50 (HCT-15 colon): 1.27 µM | TGI (HCT-15 colon): > 100 µM | GI50 (MALME-3M melanoma): 4.46 µM | TGI (MALME-3M melanoma): 39.3 µM | GI50 (SF-295 CNS): 2.51 µM | TGI (SF-295 CNS): 15 µM

COc1cc(Nc2nc3ccccc3cc2C(=O)Nc2ccc(F)c(F)c2)cc(OC)c1OC
GI50 (NCI/ADR-RES ovarian): 2.49 µM | TGI (NCI/ADR-RES ovarian): 7.21 µM | GI50 (HT29 colon): 3.59 µM | TGI (HT29 colon): > 100 µM | GI50 (OVCAR-4 ovarian): 2.8 µM | TGI (OVCAR-4 ovarian): 8.56 µM | GI50 (CAKI-1 renal): 2.72 µM | TGI (CAKI-1 renal): > 100 µM | GI50 (LOX IMVI melanoma): 2.66 µM | TGI (LOX IMVI melanoma): 8.75 µM | GI50 (OVCAR-5 ovarian): 4.29 µM | TGI (OVCAR-5 ovarian): > 100 µM | GI50 (HCT-15 colon): 2.91 µM | TGI (HCT-15 colon): > 100 µM | GI50 (RPMI-8226 leukemia): 2.16 µM | TGI (RPMI-8226 leukemia): 6.07 µM | GI50 (MALME-3M melanoma): 2.68 µM | TGI (MALME-3M melanoma): 6.41 µM | GI50 (SF-295 CNS): 2.85 µM | TGI (SF-295 CNS): 10.2 µM

CN1C(=O)N[C@H]2[C@@H]3NC(=O)c4ccc(Br)n4[C@@H]3C[C@]21O
GI50 (NCI/ADR-RES ovarian): 0.386 µM | TGI (NCI/ADR-RES ovarian): 2.22 µM | GI50 (HT29 colon): 0.0956 µM | TGI (HT29 colon): 2.29 µM | GI50 (OVCAR-4 ovarian): 0.093 µM | TGI (OVCAR-4 ovarian): 1.56 µM | GI50 (CAKI-1 renal): 2.4 µM | TGI (CAKI-1 renal): 13.1 µM | GI50 (LOX IMVI melanoma): 0.369 µM | TGI (LOX IMVI melanoma): 3.37 µM | GI50 (OVCAR-5 ovarian): 1.03 µM | TGI (OVCAR-5 ovarian): 6.3 µM | GI50 (HCT-15 colon): 0.979 µM | TGI (HCT-15 colon): 8.49 µM | GI50 (RPMI-8226 leukemia): 0.0831 µM | TGI (RPMI-8226 leukemia): 0.417 µM | GI50 (MALME-3M melanoma): 0.103 µM | TGI (MALME-3M melanoma): 0.731 µM | GI50 (SF-295 CNS): 0.273 µM | TGI (SF-295 CNS): 3.21 µM

CC(C)(C)CC(C)(C)NCc1cc(C(C)(C)C)cc(CNC(C)(C)CC(C)(C)C)c1O
GI50 (NCI/ADR-RES ovarian): 2.81 µM | TGI (NCI/ADR-RES ovarian): 11.7 µM | GI50 (HT29 colon): 2.4 µM | TGI (HT29 colon): 9.7 µM | GI50 (OVCAR-4 ovarian): 2.62 µM | TGI (OVCAR-4 ovarian): 10.9 µM | GI50 (CAKI-1 renal): 3.69 µM | TGI (CAKI-1 renal): 17.2 µM | GI50 (LOX IMVI melanoma): 1.6 µM | TGI (LOX IMVI melanoma): 3.1 µM | GI50 (OVCAR-5 ovarian): 3.02 µM | TGI (OVCAR-5 ovarian): 10 µM | GI50 (HCT-15 colon): 3.22 µM | TGI (HCT-15 colon): 12.5 µM | GI50 (RPMI-8226 leukemia): 2.46 µM | TGI (RPMI-8226 leukemia): 6.49 µM | GI50 (MALME-3M melanoma): 1.85 µM | TGI (MALME-3M melanoma): 4 µM | GI50 (SF-295 CNS): 3.23 µM | TGI (SF-295 CNS): 11.7 µM

CCN(CC)CCCC(C)N=C(C1=C(C(=NC(C)CCCN(CC)CC)c2cccc(OC)c2)C(=O)NC1=O)c1cccc(OC)c1 (configuration not stated)
GI50 (NCI/ADR-RES ovarian): 2.84 µM | TGI (NCI/ADR-RES ovarian): 12.2 µM | GI50 (HT29 colon): 0.631 µM | TGI (HT29 colon): 1.79 µM | GI50 (OVCAR-4 ovarian): 1.18 µM | TGI (OVCAR-4 ovarian): 3.49 µM | GI50 (CAKI-1 renal): 1.66 µM | TGI (CAKI-1 renal): 8.62 µM | GI50 (LOX IMVI melanoma): 0.992 µM | TGI (LOX IMVI melanoma): 2.06 µM | GI50 (HCT-15 colon): 1.47 µM | TGI (HCT-15 colon): 5.53 µM | GI50 (RPMI-8226 leukemia): 1.23 µM | TGI (RPMI-8226 leukemia): 3.26 µM | GI50 (MALME-3M melanoma): 1.11 µM | TGI (MALME-3M melanoma): 2.07 µM | GI50 (SF-295 CNS): 1.47 µM | TGI (SF-295 CNS): 5.94 µM

N#CCN/C=C\C(=O)c1ccc(Cl)cc1
GI50 (NCI/ADR-RES ovarian): 28.9 µM | TGI (NCI/ADR-RES ovarian): 79.5 µM | GI50 (OVCAR-4 ovarian): 76.9 µM | TGI (OVCAR-4 ovarian): > 100 µM | GI50 (CAKI-1 renal): 30.1 µM | TGI (CAKI-1 renal): > 100 µM | GI50 (LOX IMVI melanoma): 31.5 µM | TGI (LOX IMVI melanoma): > 100 µM | GI50 (OVCAR-5 ovarian): 37.6 µM | TGI (OVCAR-5 ovarian): 97.3 µM | GI50 (RPMI-8226 leukemia): 22.6 µM | TGI (RPMI-8226 leukemia): > 100 µM | GI50 (MALME-3M melanoma): 17.9 µM | TGI (MALME-3M melanoma): 53.6 µM | GI50 (SF-295 CNS): 28 µM | TGI (SF-295 CNS): > 100 µM
